Where two headings read alike, the source gives them in different places.
Experiments:
[1] = tested on: human small cell lung cancer SBC-3 cells; assay: Confocal laser scanning microscopy of intracellular localization; assay type: cell-based; settings: 10 μg mL−1
Method: FIG. 4 illustrates CLSM images of human small cell lung cancer SBC-3 cells incubated with ADR and PEG-p(Asp-Hyd-ADR) micelles (10 μg mL^−1). […] A series of optical sections was stacked (Z-stacked) by moving the focal plane of the instrument step-by-step through the depth of the cell.

[2] = DMEM with 10% fetal bovine serum, 24 hours, 100 μg mL−1 ADR equivalent, excitation 485 nm
tumor [3] = settings: mouse, in vivo
Method: (§1) Cancer treatment efficacy of the pH-sensitive micelles was evaluated by comparing the therapeutic windows of small molecule drugs (doxorubicin) and the doxorubicin-conjugated micelles.
(§2) The CDF1 mice (female, n=6), when the tumor volume reached about 100 mm^3, were injected with DOX or the micelles in a volume of 0.1 mL/10 g body weight for the experiments. The dose was either 10 mg/kg for DOX or the micelles (DOX equivalent).
(§3) Cancer treatment efficacy of the pH-sensitive micelles was evaluated by comparing the therapeutic windows of small molecule drugs (doxorubicin) and the doxorubicin-conjugated micelles. Therapeutic windows were determined based on the ratio of ED50 to TD.

[4] = Biodistribution and plasma levels in tumor-bearing mice; settings: after 10 hours; 10 mg/kg, CDF1 mice
Method: as §2

tumor [5] = assay: Cancer treatment efficacy and toxicity in tumor-bearing mice (Table 2, therapeutic window); settings: for Complete Cure / Toxic Death: mice; for Complete Cure: cured/animals; for Toxic Death: deaths/animals
Method: as §1, §2, §3

[6] = tested on: human small cell lung cancer SBC-3 cells; settings: different ADR concentrations and exposure times
Excerpt: As a system releasing bioactive molecules, the micelles are required to maintain the ability of the loaded ADR to suppresses cell growth by binding with DNA strands in the cell nucleus.

Row | Compound | fluorescence intensity in cells ([1]; after 1 hour exposure) | intracellular localization of fluorescence ([1]; after 24 hours incubation) | fluorescence intensity at 590 nm [2] | Weight change on day 30 (%) (tumor [3]; 5 mg/kg) | Weight change on day 30 (%) (tumor [3]; 10 mg/kg) | dose remained in the blood [4] | Complete Cure (tumor [5]; dose 5 mg/kg) | Toxic Death (tumor [5]; dose 5 mg/kg) | Complete Cure (tumor [5]; dose 10 mg/kg) | Toxic Death (tumor [5]; dose 10 mg/kg) | fluorescence intensity in cells ([1]; after 24 hours incubation) | growth-inhibition effect [6] | therapeutic window compared to standard doxorubicin administration (tumor [5]; based on treatment-to-control (T/C) ratio, ratio of ED50 to TD) | Complete Cure (tumor [5]; dose 20 mg/kg) | Complete Cure (tumor [5]; dose 40 mg/kg)
1 | COc1cccc2c1C(=O)c1c(O)c3c(c(O)c1C2=O)C[C@@](O)(C(=O)CO)C[C@@H]3O[C@H]1C[C@H](N)[C@H](O)[C@H](C)O1 [DOX, doxorubicin] | increase in fluorescence intensity | only accumulated in cell nuclei | intense fluorescence | −13.35 ± 0.59 | −16.84 ± 1.26 | almost none | 0/6 | 0/6 | 1/6 | 0/6 |  |  |  |  | 
2 | poly(ethylene glycol)poly(aspartate-hydrazone-adriamycin) [DOX-Micelle] | no such increase was detected | dot-shaped within the cytoplasm |  |  |  |  | 0/6 |  | 0/6 |  | considerable fluorescence change | gradually approach those of free ADR | broader therapeutic window | 2/6 | 3/6

Reference: patent publication US20080248097A1, “POLYMERIC MICELLES FOR COMBINATION DRUG DELIVERY” (priority 2007, published 2008)
